Biological target: T1, Xaa-Pro dipeptidase (Homo sapiens) (UniProt P12955)
T1 sequence (whole entry): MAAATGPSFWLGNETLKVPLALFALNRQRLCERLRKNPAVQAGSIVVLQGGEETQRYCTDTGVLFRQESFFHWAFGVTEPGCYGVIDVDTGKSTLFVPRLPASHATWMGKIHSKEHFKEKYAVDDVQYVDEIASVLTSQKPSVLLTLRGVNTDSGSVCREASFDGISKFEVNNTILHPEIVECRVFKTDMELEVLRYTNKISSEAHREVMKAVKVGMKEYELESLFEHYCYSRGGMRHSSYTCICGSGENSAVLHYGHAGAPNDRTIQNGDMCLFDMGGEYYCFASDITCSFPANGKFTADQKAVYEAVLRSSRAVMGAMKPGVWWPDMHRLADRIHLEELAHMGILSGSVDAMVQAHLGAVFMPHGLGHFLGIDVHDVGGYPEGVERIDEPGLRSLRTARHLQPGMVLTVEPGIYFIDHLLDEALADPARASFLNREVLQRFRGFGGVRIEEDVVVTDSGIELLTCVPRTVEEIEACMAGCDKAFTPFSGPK
Description: Inhibitory constant for inhibition of prolidase in the second phase of biphasic inhibition

SMILES: C=C(OP(=O)(O)O)C(=O)O
- Ki': 240 µM
